Results reported in patent EP1038880B1, “Androstanes and pregnanes for allosteric modulation of GABA receptor” (priority 1994, dated 1995).

Columns and labels:
[1] = Rotorod test (general CNS depression potential); details: mouse, in vivo, ip
Protocol: (§1) The anticonvulsant tests are similar to that described above. […] The number of animals with tonic and/or clonic convulsions was recorded. In the maximal electroshock test, 50 mA of current at 60 Hz was delivered through corneal electrodes for 200 msec to induce tonic seizure. The ability of compounds to abolish the tonic component was defined as the endpoint. General CNS depression potential was determined by a rotorod test 10 minutes after the injection of compounds where the number of mice staying on a rotating (6 rpm) rod for 1 minute in one of the three trials was determined. […] Table 7. Anticonvulsant Activity of Exemplified Neuroactive Steroids and those of Selected Clinically Useful Anticonvulsants in Mice

picrotoxin = assay: Anticonvulsant test against picrotoxin; format: in vivo, mice; details: Mus musculus, read-out: ED50 PICRO
Protocol: as §1

GR complex = assay: [35S]TBPS binding assay (inhibition of [35S]TBPS binding, cerebral cortex P2 homogenate); set-up: species or system rat; details: for IC50: 2 nM [35S]TBPS, rat cerebral cortex P2 homogenate; for IMAX: maximum inhibition of [35S]TBPS binding
Method in brief: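 Rat (male Sprague-Dawley) cortical P2 homogenate (0.5 mg protein) in 50 mM Na/K phosphate pH 7.4, 200 mM NaCl, incubated with 2 nM [35S]TBPS plus steroid test compounds (DMSO) in presence of GABA plus (+)bicuculline, 25°C, 90 min. Filtration, scintillation counting; nonspecific binding defined with […].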

[2] = system: N.I.H. Swiss-Webster mice; assay: Light/dark transition test; format: in vivo; details: IP, 10 min test, vs control, Dunnett's t-test (Fig. 8)
Protocol: Male N.I.H. Swiss-Webster mice (Harlan, Harlan, Indianapolis, IN) weighing 15-20 g were housed four per cage in polyethylene cages with sawdust bedding. The colony room was environmentally controlled (22°C) with a hr light/dark cycle (0600-1800hr). Food and water were available ad libitum, except during testing. The experiments were run from 0700-1500 hr and groups were counterbalanced for time of day effects. Mice were only administered drug or vehicle once.
The apparatus included two 2-compartment automated test chambers (Model RXYZCM16, Omnitech Electronics, Columbus, OH). The open compartment was connected to the enclosed compartment via a 7.5 × 7.5 cm passageway. The open compartment was brightly lit using a 200 W incandescent light bulb. The experimental room was kept dark. Interruptions of the infrared beams in either chamber were automatically recorded by being linked to a computer through a Digiscan Analyzer (Omnitech and the data was analyzed using the Integrated Lab Animal Monitoring System (Omnitech Electronics). N.IH. Swiss-Webster mice were administered vehicle or test drug intraperiotoneally (IP),10 min later they were placed in the center of the lit compartment. The number of transitions between the lit and dark chambers, total activity in the lit chamber and the time spent in the lit chamber were measured during a 10 min test period.

Sprague-Dawley rats = assay: Geller-Seifter conflict test; format: in vivo; details: subcutaneous administration (Figure 10)
Source text: This animal model of human anxiety utilizes a conditioned state of conflict in rats to ascertain the anxiolytic properties of drugs. […] The first includes bar pressing under a variable […] schedule without punishment. The second component is a fixed ratio schedule with each bar press resulting in a positive reinforcement and a punishment. The punished component produces a state of conflict within the animal. […] An anxiolytic response would increase the punished responding without affecting the unpunished responding.
Rats were housed individually under a 12-hour light-dark cycle with lights on from 0700-1900.
Rats were trained in test chambers (Coulbourn instruments) with a lever mounted in one wall, a small dipper that delivered the 0.1-mL milk reward (1 part Eagle condensed : milk 2 parts water), and a metal grid floor through which the foot-shock punishment was administered. A DEC PDP 11/73 minicomputer nmning SKED (State Systems) was used for programming and recording.
Rates initially learned to respond on a continuous reinforcement schedule and progressed rapidly to 30-sec, 1-min, and 2-min variable interval (VI) schedules. On the continuous reinforcement schedule, rats received milk reward following every lever press; on the VI schedules, milk rewards were available at infrequent and variable intervals, eventually at an average of once every 2 min. […] During conflict periods, which were signalled by the presentation of a light and a tone, the continuous reinforcement schedule was again in force and each lever press delivered both a milk reward and a brief ([…]) foot-shock Shock intensity was 0.2 mA initially, and.was increased daily in increments of 0.02 mA in order to gradually suppress lever pressing to 5 responses or less per conflict period. […] Drug-induced increases in the rate of punished responses were taken as an index of antianxiety activity, while decreases in the rate of unpunished responses were taken as an index of response depression or sedation.

[3] = system: N.I.H. Swiss-Webster mice; assay: Elevated plus-maze; format: in vivo; details: 5 min test, ten minutes after injection (Fig. 9A)

SMILES	ED50 at 10 min [1] [mg/kg]	ED50 (picrotoxin) [mg/kg]	IC50 (GR complex) [µM]	IMAX (GR complex) [%]	number of transitions between the dark box and the light box, in words [2]	dose of peak effect on rate of punished responses (Sprague-Dawley rats) [mg/kg]	dose producing significant increase in entries into the open-arms [3] [mg/kg]
C[C@]12CC[C@@H](O)C[C@@H]1CC[C@@H]1[C@@H]2CC[C@]2(C)[C@@H](C(=O)CO)CC[C@@H]12 [3α,21-dihydroxy-5α-pregnan-20-one]	22.9	5.6	0.076	100	–	–	–
CC(=O)[C@H]1CC[C@H]2[C@@H]3CC[C@H]4C[C@H](O)CC[C@]4(C)[C@H]3CC[C@]12C [3α-Hydroxy-5α-pregnan-20-one, 3α-hydroxy-5α-pregnan-20-one]	–	10.2	0.037	95	significantly increased	4.4	20
